Laboratory results taken from PubChem BioAssay AID248 (DTP/NCI, 2004).
Where “and” joins values, the source holds several entries; their conditions need not be identical. Identical values can stand only once. Toxic doses and inconclusive results are not listed. No stated cut-off is given here; in the data, active means T/C of 150% or more; inactive means T/C below 125%. Peptide text beside a SMILES is read from it. * marks the point of attachment. Boc = CC(C)(C)OC(=O)*

Test system: L1210 leukemia ip in BDF1 mice, survival T/C
Assay: NCI In Vivo Anticancer Drug Screen. Data for tumor model L1210 Leukemia (intraperitoneal) in B6D2F1 (BDF1) mice
Conditions: endpoint: mean survival time, higher = longer survival
How it was run: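 Read-out is survival time, reported as the treated-group measurement over the vehicle-control measurement.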

[1] = dose: 100.0 mg/kg/injection, schedule: Q04DX003 (ip), vehicle: Klucel (hydroxypropylcellulose) (HPC)
[2] = dose: 200.0 mg/kg/injection, schedule: Q04DX003 (ip), vehicle: Klucel (hydroxypropylcellulose) (HPC)
[3] = dose: 400.0 mg/kg/injection, schedule: Q04DX003 (ip), vehicle: Klucel (hydroxypropylcellulose) (HPC)
[4] = dose: 50.0 mg/kg/injection, schedule: Q01DX009 (ip), vehicle: saline
[5] = dose: 100.0 mg/kg/injection, schedule: Q04DX003 (ip), vehicle: saline
[6] = dose: 200.0 mg/kg/injection, schedule: Q04DX003 (ip), vehicle: saline
[7] = dose: 400.0 mg/kg/injection, schedule: Q04DX003 (ip), vehicle: saline

Measured: T/C

CCN(CC)CCN1C(=O)C2CCCCC2C1=O (configuration not stated)
inactive: dose: 100.0 mg/kg/injection, schedule: Q04DX003 (ip), vehicle: saline with Tween-80 101 % of control | dose: 200.0 mg/kg/injection, schedule: Q04DX003 (ip), vehicle: saline with Tween-80 101 % of control | dose: 400.0 mg/kg/injection, schedule: Q04DX003 (ip), vehicle: saline with Tween-80 97 % of control

COc1cc(NS(C)(=O)=O)ccc1Nc1c2ccc([N+](=O)[O-])cc2nc2c(C)cccc12
active: dose: 0.75 mg/kg/injection, schedule: Q04DX003 (ip), vehicle: saline 161 % of control | dose: 1.0 mg/kg/injection, schedule: Q01DX009 (ip), vehicle: saline 166 % of control | dose: 1.5 mg/kg/injection, schedule: Q04DX003 (ip), vehicle: saline 187 % of control | dose: 2.5 mg/kg/injection, schedule: Q01DX009 (ip), vehicle: saline 275 % of control | dose: 5.0 mg/kg/injection, schedule: Q01DX009 (sc), vehicle: saline 165 % of control | dose: 7.5 mg/kg/injection, schedule: Q04DX003 (ip), vehicle: saline 218 % of control | dose: 15.0 mg/kg/injection, schedule: Q01DX001 (ip), vehicle: other 162 % of control | dose: 15.0 mg/kg/injection, schedule: Q04DX003 (ip), vehicle: saline 162 % of control | dose: 33.0 mg/kg/injection, schedule: Q01DX001 (ip), vehicle: other 180 % of control | dose: 50.0 mg/kg/injection, schedule: Q01DX001 (ip), vehicle: other 177 % of control | dose: 75.0 mg/kg/injection, schedule: Q01DX001 (ip), vehicle: other 159 % of control | dose: 75.0 mg/kg/injection, schedule: Q01DX001 (ip), vehicle: saline 203 % of control | dose: 113.0 mg/kg/injection, schedule: Q01DX001 (ip), vehicle: other 173 % of control
111 % of control and 277 % of control: dose: 5.0 mg/kg/injection, schedule: Q01DX009 (ip), vehicle: saline
inactive: dose: 0.12 mg/kg/injection, schedule: Q01DX009 (ip), vehicle: saline 122 % of control | dose: 0.37 mg/kg/injection, schedule: Q04DX003 (ip), vehicle: saline 113 % of control | dose: 0.62 mg/kg/injection, schedule: Q01DX009 (ip), vehicle: saline 112 % of control | dose: 1.25 mg/kg/injection, schedule: Q01DX009 (ip), vehicle: saline 121 % of control | dose: 15.0 mg/kg/injection, schedule: Q01DX009 (ip), vehicle: saline 103 % of control | dose: 20.0 mg/kg/injection, schedule: Q01DX009 (ip), vehicle: saline 86 % of control | dose: 150.0 mg/kg/injection, schedule: Q01DX001 (ip), vehicle: saline 98 % of control

O=[N+]([O-])c1ccc(F)c(Cl)c1
inactive: dose: 100.0 mg/kg/injection, schedule: Q01DX009 (ip), vehicle: other 98 % of control | dose: 100.0 mg/kg/injection, schedule: Q04DX003 (ip), vehicle: other 105 % of control | dose: 200.0 mg/kg/injection, schedule: Q04DX003 (ip), vehicle: other 100 % of control | dose: 400.0 mg/kg/injection, schedule: Q04DX003 (ip), vehicle: other 90 % of control

CCOc1ccc2[nH]c(=S)sc2c1
inactive: dose: 50.0 mg/kg/injection, schedule: Q01DX009 (ip), vehicle: Klucel (hydroxypropylcellulose) (HPC) 93 % of control | dose: 100.0 mg/kg/injection, schedule: Q01DX009 (ip), vehicle: Klucel (hydroxypropylcellulose) (HPC) 102 % of control | [1] 105 % of control | dose: 200.0 mg/kg/injection, schedule: Q01DX009 (ip), vehicle: Klucel (hydroxypropylcellulose) (HPC) 86 % of control | [2] 89 % of control | [3] 100 % of control

Br/C=C/C[N+]12CN3CN(CN(C3)C1)C2
inactive: dose: 12.5 mg/kg/injection, schedule: Q01DX009 (ip), vehicle: saline 95 % of control | dose: 12.5 mg/kg/injection, schedule: Q04DX003 (ip), vehicle: saline 101 % of control | dose: 25.0 mg/kg/injection, schedule: Q01DX009 (ip), vehicle: saline 101 % of control | dose: 25.0 mg/kg/injection, schedule: Q04DX003 (ip), vehicle: saline 102 % of control | [4] 96 % of control | dose: 50.0 mg/kg/injection, schedule: Q04DX003 (ip), vehicle: saline 98 % of control

CC(C)CC(NC(=O)OC(C)(C)C)C(=O)NC(Cc1c[nH]c2ccccc12)C(=O)N1CCCC1C(=O)NCC(N)=O (configuration not stated) (Boc-LWPG-NH2; configuration not given here)
inactive: [5] 93 % of control | [6] 90 % of control | [7] 97 % of control

O=C(O)C(Br)C(Br)C(=O)Nc1cccc(Cl)c1 (configuration not stated)
inactive: dose: 100.0 mg/kg/injection, schedule: Q04DX002 (ip), vehicle: saline with Tween-80 91 % of control | dose: 200.0 mg/kg/injection, schedule: Q04DX002 (ip), vehicle: saline with Tween-80 95 % of control | dose: 400.0 mg/kg/injection, schedule: Q04DX002 (ip), vehicle: saline with Tween-80 88 % of control

CCCCNc1ccc(S(=O)(=O)c2ccc(NCCCC)c([N+](=O)[O-])c2)cc1[N+](=O)[O-]
inactive: dose: 1.56 mg/kg/injection, schedule: Q01DX009 (ip), vehicle: DMSO 89 % of control | dose: 3.12 mg/kg/injection, schedule: Q01DX009 (ip), vehicle: DMSO 101 % of control | dose: 6.25 mg/kg/injection, schedule: Q01DX009 (ip), vehicle: DMSO 101 % of control | dose: 25.0 mg/kg/injection, schedule: Q01DX009 (ip), vehicle: DMSO 102 % of control | dose: 100.0 mg/kg/injection, schedule: Q01DX005 (ip), vehicle: DMSO 105 % of control | dose: 100.0 mg/kg/injection, schedule: Q01DX009 (ip), vehicle: DMSO 100 % of control | dose: 100.0 mg/kg/injection, schedule: Q04DX002 (ip), vehicle: DMSO 103 % of control | dose: 200.0 mg/kg/injection, schedule: Q01DX005 (ip), vehicle: DMSO 90 % of control | dose: 200.0 mg/kg/injection, schedule: Q04DX002 (ip), vehicle: DMSO 111 % of control | dose: 400.0 mg/kg/injection, schedule: Q01DX005 (ip), vehicle: DMSO 93 % of control | dose: 400.0 mg/kg/injection, schedule: Q04DX002 (ip), vehicle: DMSO 103 % of control

COc1cc2ccc3c(c2cc1OC)CNCC3
inactive: [4] 104 % of control | dose: 100.0 mg/kg/injection, schedule: Q01DX009 (ip), vehicle: saline 104 % of control | [5] 116 % of control | dose: 200.0 mg/kg/injection, schedule: Q01DX009 (ip), vehicle: saline 88 % of control | [6] 102 % of control

O=C1c2ccccc2C(=C/C=C/c2ccccc2)c2ccccc21
inactive: [1] 99 % of control | [2] 89 % of control | [3] 92 % of control

O=c1cc(Cc2ccc(F)cc2)[nH]c(=O)[nH]1
inactive: dose: 25.0 mg/kg/injection, schedule: Q01DX001 (ip), vehicle: Klucel (hydroxypropylcellulose) (HPC) 97 % of control | dose: 50.0 mg/kg/injection, schedule: Q01DX001 (ip), vehicle: Klucel (hydroxypropylcellulose) (HPC) 101 % of control | dose: 100.0 mg/kg/injection, schedule: Q01DX001 (ip), vehicle: Klucel (hydroxypropylcellulose) (HPC) 96 % of control

CCC(C)C1NC(=O)C(NC(=O)c2c3nc4c(C(=O)NC5C(=O)NC(C(C)CC)C(=O)N6CCCC6C(=O)N(C)CC(=O)N(C)C(C(C)C)C(=O)OC5C)cc(N)c(C)c4oc-3c(C)c(=O)c2N)C(C)OC(=O)C(C(C)C)N(C)C(=O)CN(C)C(=O)C2CCCN2C1=O (configuration not stated)
inactive: dose: 75.0 micrograms/kg/injection, schedule: Q01DX009 (ip), vehicle: saline + alcohol 119 % of control | dose: 100.0 micrograms/kg/injection, schedule: Q01DX009 (ip), vehicle: saline + alcohol 121 % of control | dose: 150.0 micrograms/kg/injection, schedule: Q01DX009 (ip), vehicle: saline + alcohol 124 % of control | dose: 300.0 micrograms/kg/injection, schedule: Q01DX009 (ip), vehicle: saline + alcohol 105 % of control | dose: 300.0 micrograms/kg/injection, schedule: Q04DX003 (ip), vehicle: saline + alcohol 122 % of control | dose: 400.0 micrograms/kg/injection, schedule: Q01DX009 (ip), vehicle: saline + alcohol 86 % of control

Cc1c(O)cccc1N(C)C
inactive: dose: 100.0 mg/kg/injection, schedule: Q01DX001 (ip), vehicle: saline 112 % of control | dose: 100.0 mg/kg/injection, schedule: Q04DX003 (ip), vehicle: acetone 111 % of control | dose: 200.0 mg/kg/injection, schedule: Q01DX001 (ip), vehicle: saline 105 % of control | dose: 200.0 mg/kg/injection, schedule: Q04DX003 (ip), vehicle: acetone 106 % of control | [6] 88 % of control | dose: 400.0 mg/kg/injection, schedule: Q01DX001 (ip), vehicle: saline 91 % of control | dose: 400.0 mg/kg/injection, schedule: Q04DX003 (ip), vehicle: acetone 102 % of control | [7] 90 % of control
